Patent US12661385B2, “Modulation of mTORCI activity and autophagy via CIB2-RHEB interaction” (University of Maryland, Baltimore, priority 2018, dated 2026)
Where a chain is given by its changes, count along the chain named. Blank lines part the entries; values can stand above or below the molecule they belong to.

What was measured:
[1] = tested on: RPE-specific Cib2^KO mice; assay: TEM analysis of the RPE at the conclusion of treatment; assay type: in vivo, mouse; conditions: 9-cis retinal-treated RPE-specific Cib2^KO mice
Protocol: FIG. 4. […] Scale bar. 2 μm.
Sections for EM were prepared as previously described 48. Briefly, hemisected eyecups were rinsed in buffer and postfixed in 2% osmium tetroxide and 1.5% potassium ferrocyanide in dH2O for 2 hr, dehydrated in a graded ethanol series, and embedded in Epon-Araldite (Electron Microscopy Sciences, Hatfield, PA). Semi-thin sections (4 μm) were cut and stained with 1% cresyl violet. Ultra-thin sections (90 nm) were cut on an ultramicrotome (Ultracut E 701704, Reichert-Jung, Buffalo, NY) using a diamond knife (Micro Star Technologies, Inc., Huntsville, TX), collected on copper grids, counterstained with 4% methanolic uranyl acetate (Electron Microscopy Sciences, Hatfield, PA), and outer retinal morphology examined using a transmission electron microscope (TEM; Model 300: Phillips, Eindhoven, The Netherlands). Photomicrographs were captured with a digital camera (15 megapixel digital camera, Scientific Instruments and Applications, Duluth, GA) and Maxim DL Version 5 software (Diffraction Limited, Ottawa, Canada).

[2] = tested on: RPE-specific Cib2^KO mice; conditions: mouse, in vivo
From the text: For comparison, untreated WT control mice (black squares) are replotted from FIG. 6b. c, Schematic of treatment paradigm in RPE-specific Cib2^KO injected with 9-cis retinal and control mice injected with vehicle. d. […] TEM micrographs for indicated genotype at the end of the treatment paradigm as outlined in c (n=3/genotype).
To further assess the potential clinical translatability of exogenous retinoids, we tested an extended treatment paradigm following injection of 9-cis retinal in RPE-specific Cib2^KO mice (FIG. 4c). […] To assess medium-term efficacy of exogenous retinoid therapy, we extended the paradigm further by one month.
Electroretinograms (ERG) were recorded as earlier described^14 with modifications. Mice, overnight dark-adapted, were anesthetized with ketamine-xylazine (100 mg/kg and 10 mg/kg, respectively) and pupils were dilated with 1% Tropicamide. A gold wire lens electrode was placed on the cornea, a platinum reference electrode in the mouth, and a ground electrode on the tail. To assess rod-driven responses, increasing scotopic stimuli were presented sequentially (0.003962233 to 3.147314 cd×s/m2) with 5-60 sec intervals using UTAS BigShot (LKC Technologies, Gaithersburg, MD). At least 3 waveforms per intensity were averaged. For cone function evaluation, photopic responses to a single bright flash (3.15 cd×s/m2) under a steady rod-suppressing field of cd×s/m2. Waves were analyzed using EM for Windows software (LKC Technologies).

[3] = target: T1, TSC2 (Homo sapiens, UniProt P49815); assay: NanoSPD (nanoTRAP) interaction assay in COS-7 cells, TSC2; assay type: binding; conditions: FLAG-tagged TSC2
T1 construct: host or cells: COS-7
T1 sequence (P49815 whole entry): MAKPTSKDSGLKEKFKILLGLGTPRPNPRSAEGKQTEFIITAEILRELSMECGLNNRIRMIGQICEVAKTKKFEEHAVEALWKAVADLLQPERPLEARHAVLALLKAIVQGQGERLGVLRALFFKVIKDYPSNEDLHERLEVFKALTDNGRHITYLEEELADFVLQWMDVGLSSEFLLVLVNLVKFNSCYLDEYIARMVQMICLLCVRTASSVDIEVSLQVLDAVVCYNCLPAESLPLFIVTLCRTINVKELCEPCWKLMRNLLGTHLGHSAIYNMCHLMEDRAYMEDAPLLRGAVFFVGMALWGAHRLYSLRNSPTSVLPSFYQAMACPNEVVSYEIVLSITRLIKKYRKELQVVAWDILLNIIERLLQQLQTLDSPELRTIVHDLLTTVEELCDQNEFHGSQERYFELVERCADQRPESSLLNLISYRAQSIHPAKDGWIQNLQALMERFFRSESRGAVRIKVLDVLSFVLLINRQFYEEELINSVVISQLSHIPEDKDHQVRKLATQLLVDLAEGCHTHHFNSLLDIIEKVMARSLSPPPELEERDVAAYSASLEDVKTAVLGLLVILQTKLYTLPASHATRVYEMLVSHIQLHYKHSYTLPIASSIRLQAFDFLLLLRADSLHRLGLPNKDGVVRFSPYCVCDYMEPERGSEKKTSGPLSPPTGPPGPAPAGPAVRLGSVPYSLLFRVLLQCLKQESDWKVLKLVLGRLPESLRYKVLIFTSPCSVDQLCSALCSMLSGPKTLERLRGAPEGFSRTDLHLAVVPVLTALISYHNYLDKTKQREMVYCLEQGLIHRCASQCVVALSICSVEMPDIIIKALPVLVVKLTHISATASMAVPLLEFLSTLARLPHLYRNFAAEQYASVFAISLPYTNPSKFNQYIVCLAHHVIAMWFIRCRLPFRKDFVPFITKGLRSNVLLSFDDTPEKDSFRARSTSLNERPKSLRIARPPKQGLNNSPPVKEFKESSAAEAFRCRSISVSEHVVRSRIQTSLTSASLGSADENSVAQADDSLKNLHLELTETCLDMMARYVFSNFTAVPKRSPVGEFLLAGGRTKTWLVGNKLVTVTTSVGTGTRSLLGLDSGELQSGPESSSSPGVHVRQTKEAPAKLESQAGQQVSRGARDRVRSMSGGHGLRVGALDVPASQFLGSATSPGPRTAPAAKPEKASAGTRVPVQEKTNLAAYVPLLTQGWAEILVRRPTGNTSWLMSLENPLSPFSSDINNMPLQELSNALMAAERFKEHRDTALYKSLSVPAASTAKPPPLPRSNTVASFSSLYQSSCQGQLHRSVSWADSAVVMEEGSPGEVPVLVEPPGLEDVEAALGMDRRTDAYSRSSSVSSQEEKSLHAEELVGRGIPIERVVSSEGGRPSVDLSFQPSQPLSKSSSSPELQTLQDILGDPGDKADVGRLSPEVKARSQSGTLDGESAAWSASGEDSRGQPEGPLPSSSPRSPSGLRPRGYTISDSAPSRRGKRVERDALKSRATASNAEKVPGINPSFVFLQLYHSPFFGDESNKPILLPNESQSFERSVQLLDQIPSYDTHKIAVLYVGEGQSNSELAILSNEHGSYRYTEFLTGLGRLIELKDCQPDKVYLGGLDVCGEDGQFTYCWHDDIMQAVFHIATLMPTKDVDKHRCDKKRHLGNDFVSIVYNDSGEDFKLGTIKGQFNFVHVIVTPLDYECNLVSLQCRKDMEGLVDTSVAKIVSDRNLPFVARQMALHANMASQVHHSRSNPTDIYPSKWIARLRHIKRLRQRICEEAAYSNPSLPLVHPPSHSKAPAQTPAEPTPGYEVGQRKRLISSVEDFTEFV
From the text: (§1) FIG. 14. […] Arrowheads indicate filopodia tip accumulation of hCIB2-eGFP, * indicates no accumulation of indicted constructs in the red channel. c. Representative confocal images (top panel) showing CIB2 (green) interaction with Rheb (red) and Raptor (red) using NanoTRAP assay. […] Arrowheads indicate filopodia tip accumulation of indicated constructs, * indicates no accumulation of indicted construct in the red or far-red channel. Scale bar: 10 μm. d. Quantification for nanoTRAP assay for images shown above. *** p<0.001 by one-way ANOVA. e, Co-IP experiments show interaction between Raptor and CIB2.
(§2) To reveal the molecular mechanism of CIB2-mediated mTORC1 modulation, we focused on the TSC-Rheb-mTORC1 axis. We performed an interaction screen of specific proteins including TSC1, TSC2, mTORC1-specific subunit Raptor, mTOR kinase, and Rheb. We used a recently-published quantitative interaction assay known as nanoscale pulldown 2.0 (NanoSPD), in which eGFP-nanobody tag fused to the myosin-HMM domain (nanoTRAP) preferentially migrates to the filopodia (Bird et al., Molecular Biology of the Cell 28, 463-475 (2017)). CIB2-eGFP (bait) migrated efficiently to filopodia in COS-7 cells only in the presence of the nanoTRAP. […] Many downstream and upstream targets of mTORC1 regulate its activity via binding to the mTORC1-specific subunit Raptor. […]

[4] = target: T2, TSC1 (Homo sapiens, UniProt Q92574); assay: NanoSPD (nanoTRAP) interaction assay in COS-7 cells, TSC1; assay type: binding; conditions: FLAG-tagged TSC1
T2 construct: host or cells: COS-7
T2 sequence (Q92574 1-1164): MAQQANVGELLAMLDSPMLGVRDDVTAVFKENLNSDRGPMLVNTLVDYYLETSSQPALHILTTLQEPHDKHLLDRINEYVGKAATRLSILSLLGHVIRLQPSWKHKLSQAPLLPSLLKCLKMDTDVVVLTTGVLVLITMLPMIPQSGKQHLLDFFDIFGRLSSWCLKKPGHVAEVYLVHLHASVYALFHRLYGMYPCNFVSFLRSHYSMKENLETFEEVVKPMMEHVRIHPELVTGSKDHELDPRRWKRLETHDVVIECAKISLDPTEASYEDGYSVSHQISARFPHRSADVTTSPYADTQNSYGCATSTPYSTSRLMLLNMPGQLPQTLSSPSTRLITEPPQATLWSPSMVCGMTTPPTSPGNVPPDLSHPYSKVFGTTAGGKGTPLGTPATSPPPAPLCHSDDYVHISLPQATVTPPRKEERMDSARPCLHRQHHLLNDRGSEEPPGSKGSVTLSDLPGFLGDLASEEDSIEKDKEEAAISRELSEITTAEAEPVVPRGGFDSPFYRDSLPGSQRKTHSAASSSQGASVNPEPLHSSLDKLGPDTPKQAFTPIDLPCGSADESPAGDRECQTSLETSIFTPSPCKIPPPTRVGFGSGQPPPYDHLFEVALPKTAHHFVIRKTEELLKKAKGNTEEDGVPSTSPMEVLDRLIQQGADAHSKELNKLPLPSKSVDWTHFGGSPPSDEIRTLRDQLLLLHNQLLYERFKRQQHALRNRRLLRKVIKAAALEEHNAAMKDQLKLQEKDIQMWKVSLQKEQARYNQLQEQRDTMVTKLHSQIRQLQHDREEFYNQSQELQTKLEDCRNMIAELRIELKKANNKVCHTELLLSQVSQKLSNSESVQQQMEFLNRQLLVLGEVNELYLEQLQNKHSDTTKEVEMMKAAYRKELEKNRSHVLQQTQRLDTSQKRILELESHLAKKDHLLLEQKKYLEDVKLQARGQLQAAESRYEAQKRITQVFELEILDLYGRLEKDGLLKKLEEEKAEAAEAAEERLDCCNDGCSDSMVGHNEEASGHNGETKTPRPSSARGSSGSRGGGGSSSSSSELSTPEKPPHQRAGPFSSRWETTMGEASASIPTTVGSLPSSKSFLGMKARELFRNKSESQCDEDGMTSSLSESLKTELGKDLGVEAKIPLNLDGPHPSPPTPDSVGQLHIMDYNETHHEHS
From the text: as §1, §2

[5] = target: Rheb (Homo sapiens, UniProt Q15382); assay: Co-IP of tdTomato-CIB2 with HA-GST-Rheb and Rheb variants; assay type: binding; design: host or cells: HEK293; conditions: HEK293 lysates
Sequence of Rheb (Q15382 1-181): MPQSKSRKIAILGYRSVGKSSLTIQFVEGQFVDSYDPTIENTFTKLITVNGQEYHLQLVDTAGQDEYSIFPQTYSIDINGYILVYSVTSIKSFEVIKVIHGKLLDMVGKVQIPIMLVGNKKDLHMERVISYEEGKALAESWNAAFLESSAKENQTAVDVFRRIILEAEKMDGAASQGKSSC
Protocol: FIG. 3. […] Note the stronger interaction between CIB2 and Rheb S20N variant as compared to Q64L variant (GDP vs GTP mimetic, respectively). c, CIB2 preferentially interacts with GDP-loaded Rheb is further confirmed by co-IP experiments of HA-GST-Rheb immobilized on […] and loaded with either GDP or GTPγS, followed by incubation with tdTomato-CIB2 lysate. d, Proposed model of CIB2 function in retinal sensory cells. […] Loss of CIB2 results in reduced autophagy and exacerbated mTORC1 signaling, thus leading to RPE pathology and secondary PR dysfunction. e, f Immunoblots from RPE/choroid lysates from dry AMD or control age-matched donors indicate reduced CIB2 expression, overactive mTORC1 and reduced autophagy, quantified in panel f. Unpaired two-tailed 1 test was used to determine statistical significance. p value of <0.05 (*), <0.01 (**), and <0.001 (***). Please note that one control sample (ψ) is outliner and is highly variant from the rest, Re-quantification, omitting the highly variant control sample, is shown in FIG. 15. g.
We tested the essentiality of nucleotide binding state of Rheb using co-IP assays. […] Next, we used the Q64L and […] Rheb variants, which mimic the GTP- and GDP-bound state, respectively. […]

- ERG amplitude differences between groups four weeks post-injection [2]: returned to their baseline levels
- ERG amplitudes four weeks after the 2nd injection [2]: diverged significantly
- ERG amplitudes two weeks after the 2nd injection [2]: no discernable inter-group differences
Molecule: CC1=C(/C=C/C(C)=C\C=C\C(C)=C\C=O)C(C)(C)CCC1 [9-cis retinal]
- Mice with vacuoles and/or sub-RPE drusen present in the RPE (TEM) [1]: 3 of 3
- ERG amplitudes after the treatment paradigm (overall) [2]: temporarily but reproducibly improved ERG amplitudes
- ERG amplitudes two weeks after the 1st injection [2]: indistinguishable from those of vehicle-injected RPE-Cre+ controls

- Co-accumulation with TSC2 (NanoSPD) [3]: did not show any co-accumulation
- Co-accumulation with TSC1 (NanoSPD) [4]: did not show any co-accumulation
B1: CIB2-eGFP: eGFP-tagged human CIB2 used as bait in the NanoSPD assay (protein)
chain: MGNKQTIFTEEQLDNYQDCTFFNKKDILKLHSRFYELAPNLVPMDYRKSPIVHVPMSLIIQMPELRENPFKERIVAAFSEDGEGNLTFNDFVDMFSVLCESAPRELKANYAFKIYDFNTDNFICKEDLELTLARLTKSELDEEEVVLVCDKVIEEADLDGDGKLGFADFEDMIAKAPDFLSTFHIRI
modifications: left off: large carriers
notes: eGFP-tagged human CIB2 used as bait in the NanoSPD assay

- Co-immunoprecipitation with HA-GST-Rheb [5]: co-immunoprecipitated with HA-GST-Rheb
B2: tdTomato-CIB2: tdTomato tagged CIB2 expressed in HEK293 cells (tdTomato-C1-mCIB2 construct) (protein)
chain: B1 chain with S32A, A76E, L130M, D141E, E143D
modifications: left off: large carriers
